Assay [1] deals with T1, acid-β-glucocerebrosidase (ABG) (Homo sapiens, UniProt P04062).
T1 construct: from tissue; host or cells: dried blood spots from adult human venous blood
T1 sequence (P04062 40-536): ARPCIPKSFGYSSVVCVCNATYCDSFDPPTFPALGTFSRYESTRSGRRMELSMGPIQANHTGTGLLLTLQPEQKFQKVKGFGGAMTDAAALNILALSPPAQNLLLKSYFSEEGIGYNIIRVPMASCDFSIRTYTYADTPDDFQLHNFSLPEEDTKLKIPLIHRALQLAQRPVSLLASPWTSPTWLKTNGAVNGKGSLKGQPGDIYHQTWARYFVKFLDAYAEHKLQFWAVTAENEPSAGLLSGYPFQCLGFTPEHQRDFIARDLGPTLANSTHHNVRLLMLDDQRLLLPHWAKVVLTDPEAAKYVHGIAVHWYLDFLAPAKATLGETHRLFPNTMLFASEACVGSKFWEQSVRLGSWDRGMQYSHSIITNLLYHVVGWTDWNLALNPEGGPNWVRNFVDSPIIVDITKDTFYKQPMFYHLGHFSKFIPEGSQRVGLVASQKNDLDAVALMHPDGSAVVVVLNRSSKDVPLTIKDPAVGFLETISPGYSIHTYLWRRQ
In words: Detection of enzyme activity in dried blood spots by mass spectrometry (ABG substrate). It counts as biochemical. Particulars: FIG. 6, dried blood disk, substrate 500 μmol/L, 15 to 24 hours at 37° Celsius. Here is the method: The substrates of Compounds 1 and 7 are used to detect the presence of acid-β-glucocerebrosidase (ABG) and galactocerebroside-β-galactosidase (GALC) respectively. Blood is obtained by venipuncture from consenting adult humans and blotted on filter paper. For each sample, a disk of 3 mm diameter is punched from the areas of dried blood into a well of a 96-well microtiter plate. The blood disk is then incubated directly with an assay solution containing substrates at a final concentration of 500 μmol/L and corresponding internal standards at a final concentration of 5 μmol/L. To the assay solution, a final concentration of 0.5 mol/L sodium acetate buffer with sodium taurocholate is also added. The assay mixture containing the blood disk is incubated for 15 to 24 hours at 37° Celsius with orbital shaking (150 rpm) in a thermostatic air shaker. After the incubation period, an aliquot of pure methanol is added to each tube or well to terminate the enzymatic reaction. Before going into the mass spectrometer, the incubated reaction mixture is diluted with pure methanol. For the mass spectrometry analysis, the electrospray source is operated in positive mode, and the ions are detected in parent-ion scan mode. The amount of enzymatic product is calculated from the ion abundance ratio of the product to the internal standard minus that of a blank.

Assay [2] has as its target T1, acid-β-glucocerebrosidase (ABG). As to the kind of experiment: Simultaneous detection of multiple enzyme activity in dried blood spots by MS/MS (ABG). Type of assay: biochemical. Particulars: Compounds 1 and 7 used simultaneously, substrates 100 μmol/L, dried blood disk, 15 to 24 hours at 37° Celsius. The procedure:
The substrates of Compounds 1 and 7 are used simultaneously to detect the presence of acid-β-glucocerebrosidase (ABG) and galactocerebroside-β-galactosidase (GALC) respectively. Blood is obtained by venipuncture from consenting adult humans and blotted on filter paper. For each sample, a disk of 3 mm diameter is punched from the areas of dried blood into a well of a 96-well microtiter plate. The blood disk is then incubated directly with an assay solution containing substrates at a final concentration of 100 μmol/L and corresponding internal standards at a final concentration of 1 μmol/L. To the assay solution, a final concentration of 0.5 mol/L sodium acetate with sodium taurocholate buffer is also added (30 μl final assay volume). The assay mixture containing the blood disk is incubated for 15 to 24 hours at 37° Celsius with orbital shaking (150 rpm) in a thermostatic air shaker. After the incubation period, a 100 μl aliquot of 50:50 methanol/ethyl acetate is added to each tube or well to terminate the enzymatic reaction. The reaction is then supplemented with 400 μl HPLC grade ethyl acetate and 200 μl water. […] For mass spectrometry analysis, the electrospray source is operated in positive mode, and the ions are detected in parent-ion scan mode. The amount of enzymatic product is calculated from the ion abundance ratio of the product to the internal standard minus that of a blank.

Consider `CCCCCCCCCCCCC/C=C/C(O)C(CO[C@@H]1OC(CO)[C@@H](O)C(O)C1O)NC(=O)CCCC` (some centres unmarked) [Compound 1], for which the “improvement in product detection over a similar compound substituting the C5 amido for a C12 amido” value in assay [1] came to 2 fold. Also, the “detection of ABG (enzymatic product by MS/MS)” value in assay [2] is “Detection of both ABG and GALC is achieved”.
